Tests used:
[1] = system: UPase knockout (19519) Drosophila melanogaster; assay: Fly Study II: MTX lethality in UPase knockout flies; assay type: in vivo
Experimental: Embryos of UPase knockout (19519) Drosophila melanogaster were orally exposed to a dose range of MTX doses in food admix. Embryos of Wild-type (Oregon-R) were orally exposed to the same dose range of MTX in presence and absence of 0.04 mg TK-112690. Scoring was based on life or death 15 days after initiation of MTX exposure. […] Wild-type D. melanogaster are sensitive to lethal effects of ≥0.1 mg MTX.
The aim of this study was to evaluate the lethal effects of a range (0.001, 0.01, 0.05, 0.1, 0.2, 0.4 mg) of doses of orally fed MTX in wild-type (Ore-R) and UPase mutant Drosophila melanogaster. Embryos of UPase knockout (19519) Drosophila melanogaster were orally exposed to a dose range of MTX (0.001, 0.01, 0.05, 0.1, 0.2, 0.4 mg) in food admix. Embryos of Wild-type (Oregon-R) were orally exposed to the same dose range of MTX in presence and absence of 0.04 mg TK-112690. Scoring was based on life or death 15 days after initiation of MTX exposure.

C57BL/6 mice = assay: Mouse Study III: MTX-induced infection measured as WBC counts; assay type: in vivo; details: Day 11
Experimental: C57BL/6 mice (n=10/dose group), treated i.p. 50 mg/kg MTX on Day 1, 2, 3, 4, 6 and 8 along with 60 mg/kg TK-1126901.p. 3 hr±MTX followed by single daily doses TK-112690 on days not treated with MTX. On Day 11, the animals were sacrificed and hematology performed on the resulting blood. Group 1=saline control, Group 2=MTX control and Group 3=MTX+TK-112690.
Several parameters have been examined in an effort to develop a model to confirm the protection from mucositis observed in the LPS/MTX assay. On examination of complete blood counts (CBCs), consistently elevated levels of white blood cell counts (WBCs) are observed when mice are treated with MTX (FIG. 4). This increase is not observed in animals that are also treated with TK-112690 (FIG. 4). […] LPS is a large molecule on the outer membrane of Gram negative bacteria. Tissues exposed to LPS express pro-inflammatory cytokines such as TNF-α and […]. Increases in these cytokines due to exposure of tissues to LPS generate an immune response which, in turn, increases WBCs.
For the study whose data are presented in FIG. 4, C57BL/6 mice (n=10/dose group) were treated i.p. with 50 mg/kg MTX on Day 1, 2, 3, 4, 6 and 8 along with 60 mg/kg TK-1126901.p. 3 hr±MTX followed by single daily doses TK-112690 on days not treated with MTX. On Day 11, the animals were bled and hematology performed on the resulting blood samples. […]

CCRF-CEM human tumors = assay: Mouse Study IV: xenograft with CCRF-CEM implants; assay type: in vivo, SCID mice
Experimental: In this study, n=10 SCID mice per dose group were treated with CCRF-CEM human tumors and the tumors allowed to grow to a size of approximately 100 mg. Then the animals were treated by intraperitoneal (ip) injection with either control 20% DMSO/80% PBS (1×/day)×5 days (Group 1), MTX 7.5 mg/kg/injection (1×/day)×5 days (Group 2) or MTX 7.5 mg/kg/inj. (1×/day)×5 days+TK-112690 30 mg/kg/inj.±3 hrs (group 3). The Figure provides tumor sizes in each of the 3 groups on Day 27 of the study.
A xenograft study was performed to analyze the effect of TK-112690. administration on the in vivo efficacy of MTX against a human cancer. Human CCRF-CEM (T-ALL) cells were implanted subcutaneously into SCID mice. Tumor volumes were recorded on a regular basis, and once tumors had become established, treatment was given. […] All treatments were given ip, and TK-112690 was give 3 hours prior to and 3 hours after MTX administration.

Drosophila melanogaster = assay: Fly Study I: protection from MTX-induced lethality; assay type: in vivo
Experimental: In this study, Drosophila melanogaster eggs (50 eggs per vial) were treated with either 0.005 mg TK-112690+0.4 mg MTX (Group 1), 0.01 mg TK-112690+0.4 mg MTX (Group 2), 0.04 mg TK-112690+0.4 mg MTX (Group 3), 0.1 mg TK-112690+0.4 mg MTX (Group 4), 0.4 mg MTX alone (Group 5) or saline blank (Group 6). Two vials of eggs for each dose group were evaluated for viability (viable flies plus pupae).
The efficacy of cancer chemotherapy can be improved if agents are available to reduce the adverse events associated with treatment with cytotoxic agents. To this end, Drosophila melanogaster (commonly know as the fruit fly) is an ideal organism to screen chemical compounds for such side-effect-reducing agents. This study is aimed at finding a dose of a 2,2′-anhydropyrimidine test article that protects against MTX-induced lethality in insects.
Increasing amounts of a 2,2′-anhydropyrimidine test article (typically 0.03 to 0.1 mg) are mixed in an aqueous solution with 0.3 (or 0.4) mg MTX. Four milliliters (mL) of a 2,2′-anhydropyrimidine test article+MTX solutions are added to an appropriate amount of instant fly medium. Fruit fly eggs are added to a 2,2′-anhydropyrimidine test article+MTX treated medium and incubated for up to 31 days. After the 31 day incubation, each assay is scored by the number of mature fly and pupae per vial.
The assays are set up in clear sterile polystyrene narrow diameter vials from Applied Scientific (Hampton, N.H.). Vials are stored in trays and incubated in a darkened 25° C. incubator.
Reagents and materials used are: 50 mg/mL MTX in H2O (pH 8), 20 mg/mL of the 2,2′-anhydropyrimidine test article in H2O, water, sterile polystyrene narrow diameter vials from Applied Scientific, Instant Drosophila Food Medium, Oregon-R Drosophila melanogaster, 25° C. incubator, and 15 mL polystyrene conical tubes
Each assay is performed in a separate fly vial. […] Pre-measured amounts of instant drosophila medium are added to each assay to achieve optimal hydration level. […] Assays are scored by the number of dead pupae or adult flies per vial.

Row | Compound | lethal effects of MTX in UPase knockout flies ([1]; MTX 0.001-0.4 mg orally) | systemic WBC (C57BL/6 mice; 50 mg/kg MTX ip Day 1, 2, 3, 4, 6 and 8) | tumor volume day 27, treatment vs saline (CCRF-CEM human tumors; MTX 7.5 mg/kg/injection ip (1×/day)×5 days) | effect of MTX on lethality in the flies (Drosophila melanogaster; 0.4 mg MTX alone vs saline) | added protection from methotrexate toxicities in UPase mutant flies ([1]; TK-112690 added to dose range of methotrexate) | protection from MTX-induced mucositis measured as WBC counts (C57BL/6 mice; 60 mg/kg ip with MTX 50 mg/kg) | tumor volume day 27, MTX+TK-112690 vs MTX (CCRF-CEM human tumors; TK-112690 30 mg/kg ip 3 hours prior to and after MTX 7.5 mg/kg) | protection against MTX-induced lethality in the Fly model (Drosophila melanogaster; with MTX 0.4 mg, TK-112690 0.005 to 0.1 mg)
1 | CN(Cc1cnc2nc(N)nc(N)c2n1)c1ccc(C(=O)N[C@@H](CCC(=O)O)C(=O)O)cc1 [MTX, N-[4-[[(2,4-diamino-6-pteridinyl)methyl]methylamino]benzoyl]-L-glutamic acid, reference compound] | resistant to lethal effects | increases systemic WBC | significantly different | highly significant | – | – | – | –
2 | Cc1cn2c(nc1=O)O[C@H]1[C@H](O)[C@@H](CO)O[C@H]12 [TK-112690, 2,2′-anhydro-5-methyluridine] | – | – | – | – | does not provide added protection | protects from MTX-induced mucositis | not significantly different | highly significant

From patent USRE48253E1, “Methotrexate adjuvants to reduce toxicity and methods for using the same” (Tosk, Inc., priority 2008, dated 2020)
